# Results from patent publication US20160286800A1, “STABILIZED COMPOSITION OF AN OXIDIZER AND METAL IONS, METHOD AND USE FOR IMPROVING DISEASE CONTROL, AND KIT FOR PREPARING SAID COMPOSITION” (AGRI-NÉO INC., priority 2013, published 2016).
# “Also recorded” adds a separate entry of the source. Like-named read-outs stand apart in the source and are kept apart here.
# Key:
# [1] = pH of the mixtures over time; assay type: physicochemical; conditions: Trt 1 pH (0.1%)
# Description: (§1) Then mixtures #1 to #5 were prepared as per below table:
# (§2) Mixtures were prepared at room temperature (around 20° C.) as per the following table: […]
# [2] = Peracetic acid concentration in aqueous solution over time, Lamotte peracetic acid test kit (code 7191-01); assay type: physicochemical; conditions: with or without copper hydroxide / metal ions
# Source text: Those skilled in the art know how to monitor levels of peracetic in solutions. For instance, it is known to use iodometric titration (F. P. Greenspan and D. G. MacKellar, 1948, Anal. Chem., 20, 1061) or to use analytical test strips. Suitable test strips include those manufactured by Merck and which are currently available under two different formats (i.e. 5-50 ppm and 100-500 ppm). These test strips provide a rapid, convenient semi-quantitative method of determining peracetic levels. LaMotte Company (Chestertown, Md., USA) also provides a test kit (code 7191-01) for titrating peracetic acid.
# Peracetic acid was generated by admixing with water a powdered product which is hereinafter called ATO CIDE. More particularly, 2 grams of the powdered product identified hereinafter under the name ATO CIDE was added and mixed for 10 minutes with in 1 liter of water, to give a solution of 2 g/L ATO CIDE. ATO CIDE is a powdered mixture consisting of:
# (§3) Then, 100 mL of the above-mentioned solution of peracetic acid (i.e ATO CIDE solution) was mixed for 5 minutes with 0.1 g of a powdered product sold under the trademark PARASOL WG®. PARASOL WG® is a powdered product comprising 50% elemental copper as copper hydroxide.
# as §3, with “Then, a” for “Then,”, “0.2 mL of a complexing agent (PBTCA) until the sequestering agent was dissolved completely, and then” for “with”, “WG® is added and dissolved with the resulting mixture.” for “WG®.”
# Then mixtures were prepared as per below table:
# as §1, §2
# [3] = test system: strawberry; conditions: in vivo
# [4] = test system: strawberry; experiment: Phytotoxicity to strawberry (statement); conditions: applied individually to strawberry; stated, no data shown
molecule,measurement,setting,value
"OP(O)O [Trt 1, Phosphorous acid]",pH,"[1]; Example 15, 24 hrs, Trt 2 pH (0.2%)",2.53
same,pH,"[1]; Example 15, 48 hrs, Trt 2 pH (0.2%)",2.80
same,pH,"[1]; Example 15, 120 hrs, Trt 2 pH (0.2%)",2.90
same,pH,"[1]; Example 15, 148 hrs, Trt 2 pH (0.2%)",2.85
same,pH,"[1]; Example 15, 172 hrs, Trt 2 pH (0.2%)",2.80
same,pH,"[1]; Example 15, room temperature, Time zero (Trt 3-5: after the additions)",2.80
"OB(O)O [Boric acid, boric acid]",effect on stability of peracetic acid (conclusion in words),[2],stabilizes PERACETIC ACID in solution for a longer period of time; also recorded: not as good as phosphoric acid in chelating copper hydroxide
"NS(=O)(=O)O [Sulfamic acid, sulfamic acid]",effect on stability of peracetic acid (conclusion in words),[2],prevented peracetic acid from being decomposed
"O=P(O)(O)O [Phosphoric acid, phosphoric acid]",effect on stability of peracetic acid (conclusion in words),[2],prevented peracetic acid from being decomposed
same,effect on stability of peracetic acid (conclusion in words),[2]; listed as phosphoric acid,prevented the decomposition of peracetic acid by metal ions
copper,phytotoxicity,[3],phytotoxic
"OP(O)O [Phosphorous acid, phosphorous acid]",effect on stability of peracetic acid (conclusion in words),[2],stabilizes the peracetic acid very well
same,phytotoxicity,[4],phytotoxic
